Measurements taken from patent US20010012854A1, “MULTICATALYTIC PROTEASE INHIBITORS FOR USE AS ANTI-TUMOR AGENTS” (priority 1997, published 2001).

Assays:
[1] = test system: Jurkat Human T Cell Leukemia Line; test: Jurkat cell viability assay (XTT reduction); format: cell-based; settings: Jurkat cells, 24 hours, viability by XTT reduction, read-out: Toxicity (IC50)
Experimental: f. Cell viability assay. Jurkat cells were treated with MCP inhibitors or vehicle for 30 min. at 37° C. Next, ionomycin (1 μM) and the phorbol ester PMA (10 ng/ml) were added, together with 0.2% ethanol. After 24 h, cell viability was assessed by reduction of XTT (Sigma, X4251). To each well, 50 μl of XTT (1 mg/ml) and 25 μl PMS (Sigma 9625, 5 mM) were added. After 3 h at 37° C., the OD of each well was read at 450 nm/690 nm by a plate reader.
(§1) The rank-order potency for Jurkat cell killing precisely matched the order for MCP inhibition (Table 2, below).

[2] = target: MCP chymotrypsin-like activity (Homo sapiens, UniProt P28074); test: Inhibition of MCP chymotrypsin-like activity; format: biochemical
Source text: as §1
Inhibition of the chymotrypsin-like activity of MCP by the disclosed MCP inhibitors has been reported, but these MCP inhibitors produced relatively little inhibition on the MCP trypsin-like activity and cathepsin B, a vacuolar cysteine protease (Iqbal, M., et al. J. Med Chem. 38: 2276-2277, 1995; Iqbal, M., et al. Bioorg. Med. Chem. Lett. 6: 287-290, 1996; and Harding, C. V., et al. J. Immuno. 155: 1767-1775, 1995). Furthermore, the order of potency for inhibition of the chymotrypsin-like activity was reported to be Compound A>Compound B>Compound C by using both isolated MCP and intact murine B cells (Iqbal, M., et al. J. Med Chem. 38: 2276-2277, 1995; Iqbal, M., et al. Bioorg. Med. Chem. Lett. 6: 287-290, 1996; and Harding, C. V., et al. J. Immuno. 155: 1767-1775, 1995).

human Jurkat T cells = test: Apoptosis in Jurkat T cells (flow cytometry sub-G1 DNA content, DNA fragmentation); format: cell-based; settings: for Increase in the apoptotic population with sub-G1 DNA content: Jurkat T cells, 15 μM, 8 h
Experimental: (§2) c. Treatment of cells with MCP inhibitor. Cells were treated with a specified MCP Inhibitor, a standard anticancer agent (etoposide or cisplatin), or DMSO (vehicle). During this process, morphological changes and cellular detachment (for attached cell lines) were monitored. At each time point, cells were harvested, and used for measurement of apoptosis and other biochemical events. In Example 1, infra, involving YVAD-CMK, Compound A was first added to Jurkat T cells. This was followed immediately by dividing the cells into multiple tissue culture flasks. YVAD-CMK was then added to an indicated concentration.
(§3) d. Flow cytometry nuclear staining and DNA fragmentation assays. DNA content analysis using flow cytometry was performed as described previously (Nicoletti, I., et al. J. Immunol. Methods 139:271-279, 1992). To assay nuclear morphology, cells were washed with PBS, fixed with 70% ethanol for 1 h, and stained with Hoechst 33258 (1 mM) for 30 min. The nuclear morphology of cells was visualized by fluorescence microscope (OLYMPUS BH2). DNA fragmentation was assayed as described previously (Grant, S., et al. Cancer Res. 52:6270-6278, 1992).
(§4) Example 1 was designed to determine if MCP is involved in the survival signaling pathway(s) and if inhibition of MCP activity induces apoptosis. Human Jurkat T cells were treated with 30 μM Compound A for 4 h. […] Both the p112 and p115 forms of RB as p112-115/RB were combined and used as an apoptosis marker.
When human Jurkat T cells were treated with 15 μM Compound A for 8 h, there was a 23% increase in the apoptotic population with sub-G1 DNA content (FIG. 2, panels b vs. a). By comparison, when Compound B was used, only an 8%-increase in sub-G1 population was detected (FIG. 2, panels c vs. a).

[3] = test system: human leukemia HL-60 cells; test: Apoptosis in HL-60 cells (DNA fragmentation, PARP cleavage); format: cell-based
Experimental: as §3
(§5) e. Whole cell extracts and western blot assay. To prepare whole cell extracts, cells were washed with PBS, and homogenized in lysis buffer (50 mM Tris, pH 8.0, 5 mM EDTA, 150 mM NaCl, 0.5% Nonidet P-40, 0.5 mM PMSF and 0.5 mM dithiothreitol). Following 30 min rocking at 4° C., the lysates were centrifuged and the supernatants were collected as whole cell extracts. The protein samples were then analyzed by sodium dodecyl sulfate-6% polyacrylamide gel electrophoresis (20-60 μg protein per lane) followed by the enhanced chemiluminescence Western blot assay using specific antibodies to CPP32, PARP, p21, p27 or RB.
Example 1 was designed to determine if MCP is involved in the survival signaling pathway(s) and if inhibition of MCP activity induces apoptosis. Human Jurkat T cells were treated with 30 μM Compound A for 4 h. […]

[4] = test system: PARP, RB and caspase-3 cleavage in Jurkat T cells; test: Western blot of caspase-3, PARP and RB in Jurkat T cells; format: cell-based, human; settings: Jurkat T cells, 15 μM, time course up to 24 h
Experimental: as §5, §4
The ability of these three MCP inhibitors to induce changes in PARP and RB proteins in a parallel experiment was also investigated. […] This rank corresponded exactly to that of the three compounds for inhibition of the chymotrypsin-like activity in isolated proteasomes (Iqbal, M., et al. J. Med Chem. 38: 2276-2277, 1995; Iqbal, M., et al. Bioorg. Med. Chem. Lett. 6: 287-290, 1996) and in intact murine B cells (Harding, C. V., et al. J Immuno. 155: 1767-1775, 1995).

[5] = test system: Bcl-2-overexpressing Jurkat cells; test: Apoptosis in Bcl-2-overexpressing Jurkat cells (nuclear staining, western blot); format: cell-based, human
Experimental: (§6) b. Cell culture. Human Jurkat T and HL-60 cells were grown in RPMI 1640 (Life Technologies, Inc.) supplemented with 10% fetal calf serum (Sigma), 100 units/ml of penicillin, 100 μg/ml of streptomycin and 2mM L-glutamine (growth medium). Jurkat T. cells overexpressing the Bcl-2 oncoprotein or vector alone (provided by Dr. D. Johnson, University of Pittsburgh, Pa.) were grown in the same growth medium with […] G418. Human cancer cell lines of breast (MCF-7, MDA-MB-231), prostate (DU145, PC3) and osteosarcoma (U2-OS), obtained from American Type Culture Collection (ATCC. Rockville, Md.)), were also grown in the RPMI growth medium. Human oral (SCC-25; from ATCC) and brain (SNB-19; Welch, W. C., et al. In Vitro Cell. Dev. Biol., 31:610-616, 1995) cancer cell lines, and normal (WI-38) and SV40-transformed human fibroblasts (WI-38 VA-13; from ATCC) were grown in DMEM medium containing 10% fetal calf serum, penicillin, streptomycin and L-glutamine.
as §3, §5
It has been shown that overexpression of Bcl-2 oncoprotein inhibits apoptosis in many cell systems (Miura, M., et al., J. Cell 75: 653-660, 1993). Bcl-2 expression in human Jurkat T cells for inhibition of Compound A-induced apoptosis was investigated.

[6] = test system: human breast cancer MCF-7 cells; test: Detachment and apoptotic nuclear changes in MCF-7 cells; format: cell-based; settings: MCF-7, 24 h
Experimental: as §2, §3
(§7) Detachment was also found in at least half of human breast cancer MDA-MB-231 and MCF-7 cells, after exposure to Compound A for 24 h.

[7] = test system: p21 and p27 in human breast cancer MDA-MB-231 cells; test: Western blot of p21 and p27 levels in MDA-MB-231 cells; format: cell-based; settings: MDA-MB-231, 17 hours, concentrations up to 100 μM
Experimental: as §5
Additionally, a band of 70 kDa whih may represent ubiquinated p70 was also observed. In contrast, etoposide caused only limited accumulation of p21 (≦4-fold) and p27 (≦2-fold) at 17 hours when used at concentrations up to 100 μM.

[8] = test system: SV40-transformed human fibroblasts (WI-38 VA13); test: Detachment, apoptotic nuclear changes and PARP cleavage in SV40-transformed fibroblasts; format: cell-based; settings: WI-38 VA13, 10 μM, up to 22 h
Experimental: as §2, §3, §5
(§8) Whether Compound A has, any selectivity in induction of apoptosis between transformed and normal cells was investigated. Normal human fibroblast cell line (WI-38) and its SV40-transformed derivative (WI-38 VA13) were utilized. […]

[9] = test system: Human prostate cancer PC-3 cells; test: Detachment and apoptotic nuclear changes in PC-3 cells; format: cell-based; settings: PC-3, 10 μM, 36 h
Experimental: as §2, §3
Human prostate cancer PC-3 cells were treated with 10 μM Compound A, etoposide, or an equal percentage of vehicle (DMSO), followed by separation of the attached and detached cell populations. Both attached and detached cell populations were then used for detection of apoptotic nuclear changes. After 36 h treatment with Compound A, ˜50% of PC-3 cells became detached.

[10] = test system: human breast cancer MDA-MB-231 cells; test: Detachment and apoptotic nuclear changes in MDA-MB-231 cells; format: cell-based; settings: MDA-MB-231, 24 h
Experimental: as §2, §3, §7

[11] = test system: Normal human fibroblast cell line (WI-38); test: Detachment, apoptotic nuclear changes and PARP cleavage in normal fibroblasts; format: cell-based; settings: normal WI-38, 10 μM, up to 22 h
Experimental: as §2, §3, §5, §8

[12] = test system: human prostate cancer DU145 cells; test: Detachment and apoptotic nuclear changes in DU145 cells; format: cell-based; settings: DU145, 16 h
Experimental: as §2, §3
Similar to PC-3, about half of human prostate cancer DU145 cells became detached after exposure to Compound A for 16 h.

[13] = test system: Jurkat cells transfected with a control vector; test: Apoptotic nuclear changes (Hoechst staining) in Jurkat cells transfected with control vector; format: cell-based, human; settings: 50 μM, 8 h
Experimental: as §6, §3
The apoptosis-inducing potency of Compound A was compared with two standard chemotherapeutic anti-cancer agents, etoposide and cisplatin. […] By comparison, treatment with 50 μM etoposide for 8 h induced only ˜47% of these cells to undergo apoptosis (FIG. 3, panels c vs. a). Treatment of 10 μM Compound A, but not etoposide or cisplatin, induced apoptosis in human prostate, breast, tongue and brain cancer cells and also in SV40 DNA virus-transformed human fibroblasts (see FIGS. 5-7).

COC(=O)CCCCCCCCC(C(=O)N[C@@H](CCCNC(=N)NS(=O)(=O)c1ccc2c(c1)CCC(C)(C)O2)C(=O)NC(C=O)CC(C)C)C1CCCC1 (some centres unmarked) [F]
IC50 [1]: 1700 nM

CC(C)CC(C=NNC(N)=O)NC(=O)C(CCCNC(=N)N[N+](=O)[O-])NC(=O)C(CCCCCCCCC#N)C1CCCC1 (centres unmarked) [H]
IC50 [2]: 300 nM
IC50 [1]: > 30000 nM

Acetyl-YVAD-chloromethyl ketone [YVAD-CMK, reference compound]
Block of Compound A-induced apoptotic events (apoptotic peak, caspase-3 processing, PARP cleavage, RB dephosphorylation and cleavage) (human Jurkat T cells; added to Compound A-treated Jurkat T cells): completely blocked

COC(=O)CCCCCCCCC(C(=O)N[C@@H](CCCNC(=N)NS(=O)(=O)c1ccc2c(c1)CCC(C)(C)O2)C(=O)N[C@H](C=O)CC(C)C)C1CCCC1 (some centres unmarked) [F]
IC50 [2]: 10 nM

CC(C)C[C@@H](C=O)NC(=O)[C@@H](CCCNC(=N)N[N+](=O)[O-])NC(=O)C(CCCCCCCCC#N)C1CCCC1 (some centres unmarked) [Compound B]
Internucleosomal fragmentation of DNA [3]: induced internucleosomal fragmentation of DNA
IC50 [2]: 6 nM
Production of p85/PARP and p112-115/RB [4]: much less p85/PARP and p 112-115/RB were found before 8 h
Increase in the apoptotic population with sub-G1 DNA content (human Jurkat T cells): 8%
IC50 [1]: 1600 nM

CCNC(=O)C(=O)C(CC(C)C)NC(=O)C(CCCN/C(N)=N/[N+](=O)[O-])NC(=O)C(CCCCCCCCC#N)C1CCCC1 (centres unmarked) [Compound C]
IC50 [2]: 21 nM
Production of p85/PARP and p112-115/RB [4]: only induced little p85/PARP and p112-115/RB after 24 h
Increase in the apoptotic population with sub-G1 DNA content (human Jurkat T cells): did not induce apoptosis
IC50 [1]: 9700 nM

COc1cc([C@@H]2c3cc4c(cc3[C@@H](O[C@@H]3O[C@@H]5CO[C@@H](C)O[C@H]5[C@H](O)[C@H]3O)[C@H]3COC(=O)[C@H]23)OCO4)cc(OC)c1O [etoposide, reference compound]
Effect of Bcl-2 expression on induced PARP and RB changes ([5]; 50 μM): inhibited these PARP and RB changes
Effect of Bcl-2 expression on induced apoptotic nuclear changes ([5]; etoposide treatment as in FIG. 3 (50 μM, 8 h)): blocked the apoptotic nuclear changes induced by etoposide
Apoptosis by nuclear staining [6]: did not induce apoptosis
Accumulation of p21 [7]: ≤ 4 fold
Accumulation of p27 [7]: ≤ 2 fold
Detachment and apoptotic nuclear changes [8]: did not induce apoptosis in either transformed or normal WI-38 cells
Detached cells [9]: Little or no detachment
Nuclear morphology (apoptotic condensation and fragmentation) [9]: all the remaining attached cells contained normal, round nuclei
Apoptosis by nuclear staining [10]: did not induce apoptosis
Detachment and apoptotic nuclear changes [11]: did not induce apoptosis in either transformed or normal WI-38 cells
Detached cells [12]: very little detachment
Nuclear morphology [12]: the remaining attached cells still contained normal nuclei
Cells exhibiting apoptotic nuclear changes [13]: ~47%

Cc1c(C)c(S(=O)(=O)NC(=N)NCCC[C@H](NC(=O)C(CCCCCCCCC#N)C2CCCC2)C(=O)N[C@H](C=O)CC(C)C)c(C)c2c1OC(C)(C)CC2 (some centres unmarked) [G]
IC50 [2]: 20 nM
IC50 [1]: 5700 nM
